The source of these data is patent US20240255419A1, “MOLECULAR PROBES FOR MAPPING BIOLOGICAL ACTIVITY” (Trustees of Boston University, priority 2023, published 2024).

Assay [1] relates to SJSA-1 cells. Nature of the assay: induction of apoptosis for activating caspase-3/7. Type of assay: cell-based. The text has this:
Other than phosphatase, we profiled caspase-3/7 activity in live cancer cells.

Assay [2] deals with alkaline phosphatase (ALP). To be noted: standard substrate, identical conditions.
Assay [3] deals with ATP synthetase. Nature of the assay: cellular uptake mechanism, NBD fluorescence of NBD-Phos-CN(S). Type of assay: cell-based. As to conditions: 5 μM inhibitor, cells with NBD-Phos-CN(S). The text has this: Considering the high sensitivity and resistance to photobleaching, we conducted real-time monitoring of dephosphorylation reaction in cells by MIP imaging as Phos-CN(S) is introduced to the cells. […] The Nanoparticles formed by the amphiphilic nitrile chameleons may escape from endosomes through endosomal membrane disruption or perforation. The variation in phosphatase activity patterns at different time points is attributed to the dynamic movements of cellular structures within live cells. As previously discussed, the nanofilaments intertwine with cellular structures, causing the nanofilaments to move along with these structures. Furthermore, we utilized NBD-Phos-CN(S) to study the cellular uptake mechanism of nitrile chameleons because NBD fluorescence cannot distinguish between substrate and product.

Assay [4] addresses T1, caspase-3 (active) (Homo sapiens, UniProt P42574).
T1 sequence (P42574 29-175 limits assumed): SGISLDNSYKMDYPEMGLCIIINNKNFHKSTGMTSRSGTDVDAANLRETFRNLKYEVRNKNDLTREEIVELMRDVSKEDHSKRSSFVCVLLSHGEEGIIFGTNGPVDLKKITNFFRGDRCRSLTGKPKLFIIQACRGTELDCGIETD
T1 sequence (P42574 176-277 limits assumed): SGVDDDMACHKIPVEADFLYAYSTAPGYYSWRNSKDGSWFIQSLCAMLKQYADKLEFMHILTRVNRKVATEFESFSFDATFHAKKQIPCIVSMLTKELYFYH
Description: enzymatic conversion efficiency by caspase-3 (active), time-course of product formation. Type of assay: biochemical. To be noted: standard substrate, identical conditions.

Turning to `COc1cccc2c1C(=O)c1c(O)c3c(c(O)c1C2=O)C[C@@](O)(C(=O)CO)C[C@@H]3O[C@H]1C[C@H](N)[C@H](O)[C@H](C)O1` [Doxorubicin], the apoptosis induction result in assay [1] was “efficiently induces apoptosis”.

Regarding `O=[N+]([O-])c1ccc(OP(=O)(O)O)cc1` [P-nitrophenyl phosphate], in assay [2], the “initial speed (v0)” value came out at 0.53 nmol/min.

Take `CC[C@H]1/C=C/C=C/C[C@@H](C)[C@H](O)[C@@](C)(O)C(=O)[C@@H](C)[C@H](O)[C@@H](C)C(=O)[C@@H](C)[C@H](O)[C@@H](C)/C=C/C(=O)O[C@@H]2[C@H](C)[C@H](CC1)O[C@]1(CC[C@H](C)[C@H](C[C@@H](C)O)O1)[C@H]2C` [oligomycin]: in assay [3], the “NBD fluorescence inside the cells” value is listed as “significantly reduced”.

Ac-DEVD-pNA: the “initial speed (v0)” value in assay [4] came to 0.33 nmol/min.
